Measured values from paper PMC5146859, “Phase 1/2 study of pacritinib, a next generation JAK2/FLT3 inhibitor, in myelofibrosis or other myeloid malignancies” (Journal of Hematology & Oncology, 2016).
Entries after “also recorded” stand apart in the source; their conditions may differ.

System: patients with advanced myeloid malignancies
Assay: Phase 1 safety: adverse events (NCIC-CTCAE version 3.0)
Assay type: in vivo, human
Protocol: At screening/baseline, patients underwent a medical history, physical examination, vital sign assessment, ECOG PS assessment, electrocardiogram, and assessment of hematologic parameters and blood chemistry. Hematology/blood chemistry, physical examinations, and vital sign assessments were performed throughout treatment. Toxicity was assessed using the National Cancer Institute Common Terminology Criteria for Adverse Events (NCIC-CTCAE), version 3.0, with relationship to treatment assigned by the investigator and were recorded from the first dose of pacritinib until 30 days after the last dose. Bone marrow biopsy and/or aspirate samples were drawn at baseline, on day 1 of cycle 4 and cycle 10, as clinically indicated, and at the termination visit. Disease response and progression were determined using the relevant International Working Group (IWG) criteria.
The efficacy-evaluable population included those patients with a baseline and corresponding follow-up value. The safety population included all enrolled patients who received ≥1 dose of pacritinib.

[1] = phase 1, 500 mg QD cohort of seven
[2] = phase 1, all patients n = 43, Grade 1/2
[3] = phase 1, all patients n = 43, Grade 3/4

## C1=C/COCc2cc(ccc2OCCN2CCCC2)Nc2nccc(n2)-c2cccc(c2)COC/1 [pacritinib, 11-(2-pyrrolidin-1-yl-ethoxy)-14,19-dioxa-5,7,26-triaza-tetracyclo[19.3.1.1(2,6). 1(8,12)]heptacosa-1(25),2(26),3,5,8,10,12(27),16,21,23-decaene]
Phase 1, 400 mg, n = 6
  Treatment-emergent AE: Petechiae: 0 n (%)
  Treatment-emergent AE: Pyrexia: 2 (33.3) n (%)
  Treatment-emergent AE: Skin lesion: 0 n (%)
  Treatment-emergent AE: Thrombocytopenia: 2 (33.3) n (%)
  Treatment-emergent AE: Upper respiratory tract infection: 0 n (%)
  Treatment-emergent AE: Vomiting: 3 (50.0) n (%)
[1]
  Patients who discontinued treatment due to AEs: two
  Patients who experienced a serious AE: three
  Patients who required dose interruptions: three
  Patients who required dose reductions: three
Phase 1, 500 mg, n = 7
  Treatment-emergent AE: Abdominal distension: 1 (14.3) n (%)
  Treatment-emergent AE: Abdominal pain: 0 n (%)
  Treatment-emergent AE: Anemia: 2 (28.6) n (%)
  Treatment-emergent AE: Any AE: 7 (100.0) n (%)
  Treatment-emergent AE: Asthenia: 1 (14.3) n (%)
  Treatment-emergent AE: Back pain: 1 (14.3) n (%)
  Treatment-emergent AE: Cardiac murmur: 1 (14.3) n (%)
  Treatment-emergent AE: Chills: 1 (14.3) n (%)
  Treatment-emergent AE: Constipation: 1 (14.3) n (%)
  Treatment-emergent AE: Cough: 0 n (%)
  Treatment-emergent AE: Decreased appetite: 0 n (%)
  Treatment-emergent AE: Dehydration: 1 (14.3) n (%)
  Treatment-emergent AE: Diarrhea: 7 (100.0) n (%)
  Treatment-emergent AE: Dizziness: 1 (14.3) n (%)
  Treatment-emergent AE: Dyspnea: 1 (14.3) n (%)
  Treatment-emergent AE: Edema peripheral: 2 (28.6) n (%)
  Treatment-emergent AE: Epistaxis: 0 n (%)
  Treatment-emergent AE: Fatigue: 3 (42.9) n (%)
  Treatment-emergent AE: Hyperbilirubinemia: 0 n (%)
  Treatment-emergent AE: Hyperuricemia: 1 (14.3) n (%)
  Treatment-emergent AE: Insomnia: 1 (14.3) n (%)
  Treatment-emergent AE: Nausea: 5 (71.4) n (%)
  Treatment-emergent AE: Neutropenia: 0 n (%)
  Treatment-emergent AE: Night sweats: 1 (14.3) n (%)
  Treatment-emergent AE: Pain in extremity: 0 n (%)
  Treatment-emergent AE: Petechiae: 1 (14.3) n (%)
  Treatment-emergent AE: Pyrexia: 2 (28.6) n (%)
  Treatment-emergent AE: Skin lesion: 0 n (%)
  Treatment-emergent AE: Thrombocytopenia: 1 (14.3) n (%)
  Treatment-emergent AE: Upper respiratory tract infection: 0 n (%)
  Treatment-emergent AE: Vomiting: 3 (42.9) n (%)
Phase 1, 600 mg, n = 6
  Treatment-emergent AE: Abdominal distension: 2 (33.3) n (%)
  Treatment-emergent AE: Abdominal pain: 1 (16.7) n (%)
  Treatment-emergent AE: Anemia: 3 (50.0) n (%)
  Treatment-emergent AE: Any AE: 6 (100.0) n (%)
  Treatment-emergent AE: Asthenia: 2 (33.3) n (%)
  Treatment-emergent AE: Back pain: 0 n (%)
  Treatment-emergent AE: Cardiac murmur: 2 (33.3) n (%)
  Treatment-emergent AE: Chills: 1 (16.7) n (%)
  Treatment-emergent AE: Constipation: 1 (16.7) n (%)
  Treatment-emergent AE: Cough: 0 n (%)
  Treatment-emergent AE: Decreased appetite: 1 (16.7) n (%)
  Treatment-emergent AE: Dehydration: 1 (16.7) n (%)
  Treatment-emergent AE: Diarrhea: 6 (100.0) n (%)
  Treatment-emergent AE: Dizziness: 1 (16.7) n (%)
  Treatment-emergent AE: Dyspnea: 3 (50.0) n (%)
  Treatment-emergent AE: Edema peripheral: 3 (50.0) n (%)
  Treatment-emergent AE: Epistaxis: 1 (16.7) n (%)
  Treatment-emergent AE: Fatigue: 1 (16.7) n (%)
  Treatment-emergent AE: Hyperbilirubinemia: 0 n (%)
  Treatment-emergent AE: Hyperuricemia: 3 (50.0) n (%)
  Treatment-emergent AE: Insomnia: 0 n (%)
  Treatment-emergent AE: Nausea: 4 (66.7) n (%)
  Treatment-emergent AE: Neutropenia: 0 n (%)
  Treatment-emergent AE: Night sweats: 1 (16.7) n (%)
  Treatment-emergent AE: Pain in extremity: 1 (16.7) n (%)
  Treatment-emergent AE: Petechiae: 0 n (%)
  Treatment-emergent AE: Pyrexia: 2 (33.3) n (%)
  Treatment-emergent AE: Skin lesion: 0 n (%)
  Treatment-emergent AE: Thrombocytopenia: 1 (16.7) n (%)
  Treatment-emergent AE: Upper respiratory tract infection: 0 n (%)
  Treatment-emergent AE: Vomiting: 3 (50.0) n (%)
[2]
  Treatment-emergent AE: Abdominal distension: 9 (20.9) n (%)
  Treatment-emergent AE: Abdominal pain: 6 (14.0) n (%)
  Treatment-emergent AE: Anemia: 3 (7.0) n (%)
  Treatment-emergent AE: Any AE: 8 (18.6) n (%)
  Treatment-emergent AE: Asthenia: 6 (14.0) n (%)
  Treatment-emergent AE: Back pain: 7 (16.3) n (%)
  Treatment-emergent AE: Cardiac murmur: 6 (14.0) n (%)
  Treatment-emergent AE: Chills: 5 (11.6) n (%)
  Treatment-emergent AE: Constipation: 11 (25.6) n (%)
  Treatment-emergent AE: Cough: 5 (11.6) n (%)
  Treatment-emergent AE: Decreased appetite: 8 (18.6) n (%)
  Treatment-emergent AE: Dehydration: 5 (11.6) n (%)
  Treatment-emergent AE: Diarrhea: 28 (65.1) n (%)
  Treatment-emergent AE: Dizziness: 6 (14.0) n (%)
  Treatment-emergent AE: Dyspnea: 9 (20.9) n (%)
  Treatment-emergent AE: Edema peripheral: 10 (23.3) n (%)
  Treatment-emergent AE: Epistaxis: 7 (16.3) n (%)
  Treatment-emergent AE: Fatigue: 9 (20.9) n (%)
  Treatment-emergent AE: Hyperbilirubinemia: 5 (11.6) n (%)
  Treatment-emergent AE: Hyperuricemia: 5 (11.6) n (%)
  Treatment-emergent AE: Insomnia: 7 (16.3) n (%)
  Treatment-emergent AE: Nausea: 19 (44.2) n (%)
  Treatment-emergent AE: Neutropenia: 2 (4.7) n (%)
  Treatment-emergent AE: Night sweats: 6 (14.0) n (%)
  Treatment-emergent AE: Pain in extremity: 5 (11.6) n (%)
  Treatment-emergent AE: Petechiae: 5 (11.6) n (%)
  Treatment-emergent AE: Pyrexia: 9 (20.9) n (%)
  Treatment-emergent AE: Skin lesion: 5 (11.6) n (%)
  Treatment-emergent AE: Thrombocytopenia: 2 (4.7) n (%)
  Treatment-emergent AE: Upper respiratory tract infection: 5 (11.6) n (%)
  Treatment-emergent AE: Vomiting: 16 (37.2) n (%)
[3]
  Treatment-emergent AE: Abdominal distension: 0 n (%)
  Treatment-emergent AE: Abdominal pain: 1 (2.3) n (%)
  Treatment-emergent AE: Anemia: 7 (16.3) n (%)
  Treatment-emergent AE: Any AE: 35 (81.4) n (%)
  Treatment-emergent AE: Asthenia: 2 (4.7) n (%)
  Treatment-emergent AE: Back pain: 0 n (%)
  Treatment-emergent AE: Cardiac murmur: 0 n (%)
  Treatment-emergent AE: Chills: 0 n (%)
  Treatment-emergent AE: Constipation: 0 n (%)
  Treatment-emergent AE: Cough: 0 n (%)
  Treatment-emergent AE: Decreased appetite: 0 n (%)
  Treatment-emergent AE: Dehydration: 0 n (%)
  Treatment-emergent AE: Diarrhea: 3 (7.0) n (%)
  Treatment-emergent AE: Dizziness: 0 n (%)
  Treatment-emergent AE: Dyspnea: 0 n (%)
  Treatment-emergent AE: Edema peripheral: 2 (4.7) n (%)
  Treatment-emergent AE: Epistaxis: 1 (2.3) n (%)
  Treatment-emergent AE: Fatigue: 4 (9.3) n (%)
  Treatment-emergent AE: Hyperbilirubinemia: 0 n (%)
  Treatment-emergent AE: Hyperuricemia: 1 (2.3) n (%)
  Treatment-emergent AE: Insomnia: 0 n (%)
  Treatment-emergent AE: Nausea: 0 n (%)
  Treatment-emergent AE: Neutropenia: 3 (7.0) n (%)
  Treatment-emergent AE: Night sweats: 0 n (%)
  Treatment-emergent AE: Pain in extremity: 0 n (%)
  Treatment-emergent AE: Petechiae: 0 n (%)
  Treatment-emergent AE: Pyrexia: 3 (7.0) n (%)
  Treatment-emergent AE: Skin lesion: 0 n (%)
  Treatment-emergent AE: Thrombocytopenia: 6 (14.0) n (%)
  Treatment-emergent AE: Upper respiratory tract infection: 0 n (%)
  Treatment-emergent AE: Vomiting: 0 n (%)
Phase 1, listing per patient and SAE
  SAE Management/Outcome: Fatal; also recorded: Dose not changed; recovered/resolved with sequelae; also recorded: Drug withdrawn; recovered/resolved with sequelae; also recorded: Drug interrupted; recovered/resolved with sequelae
Phase 1, n = 43
  Deaths attributed to AEs: Seven
  Discontinuations because of an AE considered treatment related: three
  Dose interruptions due to AEs: 18 patients
  Dose reductions due to AEs: 9 patients
  Grade 3/4 anemia: 16.3%
  Grade 3/4 thrombocytopenia: 14.0%
  Grade 3 treatment-related AEs: 20.9%
  Grade 4 treatment-related AEs: 4.7%
  Patients who died during study participation: 32.6%
  Patients who discontinued pacritinib because of an AE: Eight
  Patients with SAEs: 44.2%
  Patients with SAEs considered treatment related: 9.3%
  Treatment-related AE: diarrhea: 65.1%
  Treatment-related AE: nausea: 34.9%
  Treatment-related AE: thrombocytopenia: 11.6%
  Treatment-related AE: vomiting: 23.3%
